Test results taken from patent US10613078B2, “Assays for measuring cardiotoxicity” (NCARDIA B.V., priority 2015, dated 2020).

Tested on: human stem-cell derived cardiomyocytes
Experiment: Promega ATP assay (CellTiter-Glo luminescent cell viability) on cardiomyocytes
Assay type: cell-based
Source text: Cells were dissociated at day 21 using 10× TrypLE select and replated at 20.000 cells/well in white 96-well plates (Corning 655098) and treated according to the protocol shown in FIG. 1. Alternatively, Pluricyte Cardiomyocytes were obtained from Pluriomics (Leiden, The Netherlands). The cryopreserved cells were recovered in maintained in Pluricyte Medium (Pluriomics, Leiden, The Netherlands) and thereafter cultivated on medium without glucose and/or galactose but comprising fatty acids and carnitine as described below. […]
After two days, an ATP viability assay was performed. ATP values were measured using the Promega Cell titer Glo luminescent cell viability kit according to manufacturers instructions. […] Available ATP is measured via an ATP dependent conversion of Luciferin by a recombinant Luciferase, which produces oxyluciferin and light. The amount of luminescence generated is therefore directly proportional to the amount of ATP in the cells.

## COc1cccc2c1C(=O)c1c(O)c3c(c(O)c1C2=O)C[C@@](O)(C(=O)CO)C[C@@H]3O[C@H]1C[C@H](N)[C@H](O)[C@H](C)O1 [doxorubicin]
Cardiomyocytes cultivated in the presence of glucose, various concentrations of doxorubicin, n=6 (FIG. 2)
  effect on ATP levels: shows a clear effect on ATP levels
Cells grown in CM (with glucose) compared with CM− (without glucose and galactose, with fatty acids and carnitine) (FIG. 3, lower panel)
  mitochondrial toxicity (ATP levels), CM versus CM− medium: more pronounced in cells cultured in CM−
